The record followed here is US20230391826A1, “COMPOSITIONS AND METHODS FOR TREATING DISEASES” (Sanford Burnham Prebys Medical Discovery Institute, priority 2020, published 2023).

≈ marks a conversion by molar mass, not a printed value. Where two headings read alike, the source gives them in different places. Where a SMILES comes first, the peptide text is derived from it. Bridges are numbered along the chain shown (N, C = ends). Roman numbers before positions name the chains, in order. [ ]: non-standard residue; d: D form. βAla = NCCC(=O)O

Data set [1] is described as follows: Peptide solubility in PBS/H2O/DMSO. It is filed as physicochemical. How it is done:
Peptide identity and purity are documented by mass spectrometry and high-performance liquid chromatography (HPLC). The peptide solubility values are determined. Concentrated peptide stocks are prepared in DMSO or H2O and stored frozen at −80° C.

The target of data set [2] is T1, EphA2 (Homo sapiens, UniProt P29317). Kind of data set: EphA2 autophosphorylation on tyrosine 588 in PC3 cells (immunoblot dose-response). More on the design: EphA2 is the prevalent endogenously expressed EphA receptor in these cells; endogenous in cells; host or cells: PC3 prostate cancer cells. Particulars: for Etop pY588: Table 3, 15 min, saturating ligand, pY588/EphA2 normalized to ephrinA1-Fc. Type of data set: cell-based. How it is done:
(§1) (FIG. 2A) Dose-response curves for EphA2 autophosphorylation on tyrosine 588 (pY588; purple) and for downstream inhibition of AKT phosphorylation (magenta). PC3 cells were treated for 15 min with different concentrations of the indicated peptides. […] The graphs show quantifications from multiple blots (averages ±SE; the number of experiments used to generate each curve is shown in Table 3). […] (FIG. 2B) Examples of immunoblots of lysates from PC3 cells treated with the indicated concentrations of representative ligands. […] A white vertical line indicates removal of irrelevant lanes. […] The bars show averages ±SE, and the individual measurements are shown as black dots. […] Plots of Etop versus EC50 for pY588 in FIG. 2D and for pAKT inh in FIG. 2E. Averages ±SE are shown for the peptides and ephrinA1.
To examine the agonistic properties of the different dimeric peptide ligands, EphA2 autophosphorylation on tyrosine 588 (Y588) was measured, which is indicative of receptor activation and mediates binding of SH2 domain-containing proteins that link EphA2 to various downstream signaling pathways (FIG. 7). For these experiments, PC3 prostate cancer cells were stimulated with the dimeric peptides because EphA2 is the prevalent endogenously expressed EphA receptor in these cells, allowing comparisons with ephrins.

Data set [3] deals with T1, EphA2. The data set is described as follows: Bias factor βlig (pY588 versus pAKT inhibition, PC3 cells, reference ephrinA1-Fc). Type of data set: cell-based. Particulars: for βu (bias factor βlig): Table 3, reference ligand ephrinA1-Fc (βlig=0). More on the design: EphA2 is the prevalent endogenously expressed EphA receptor in these cells; endogenous in cells; host or cells: PC3 prostate cancer cells. As to the method:
FIG. 6 illustrates an example where Ligands can bias EphA2 signaling responses. The bias factor βlig was calculated for the indicated ligands using ephrinA1-Fc as the reference ligand. Statistical significance for the comparison of the different ligands with the reference ligand ephrinA1-Fc (βlig=0) was determined by one sample t test; *, P<0.05; **, P<0.01; ***, P<0.001; ****, P<0.0001.
FIG. 14A-14E illustrates an example where distinct factors are responsible for EphA2 biased signaling induced by different ligands. (FIG. 14A) Etop values for EphA2 Y588 phosphorylation, as in FIG. 2C. (FIG. 14B) Etop values for inhibition of AKT phosphorylation. (FIG. 14C) Graph of the ratios of the Etop values for EphA2 Y588 phosphorylation and inhibition of AKT phosphorylation, which are used in the βlig calculation. (FIG. 14D) Graph of the ratios of the EC50 values for EphA2 Y588 phosphorylation and inhibition of AKT phosphorylation, which are used in the βlig calculation. (FIG. 14E) Equation used to calculate the bias factor βlig for each ligand. The terms of the equation are rearranged, compared to equation (1) in the Materials and Methods, to better conform to the graphs in FIG. 14A-14D. **, P<0.01; ***, P<0.001; ****, P<0.0001; ns, not significant for the comparison with ephrinA1-Fc by one-way ANOVA and Dunnett's posthoc test.
The possibility of EphA2 biased signaling by analyzing the dose-response curves obtained with endogenous EphA2 in PC3 cells (FIG. 2A) was explored using approaches developed for GPCRs. This involves using EphA2 Y588 phosphorylation and AKT phosphorylation quantified as a function of ligand concentration to determine and compare the potency (EC50) and efficacy (Etop) for the two responses induced by different ligands. Remarkably, large differences among the ligands in the Etop values for Y588 phosphorylation (FIGS. 2C, 2D and 14A), but not in the Etop values for AKT inhibition (FIGS. 2E and 14B), were observed. In terms of relative efficacies for pY588 and pAKT inhibition, the C-terminally linked dimers and monomeric ligands behave differently from ephrinA1-Fc, while the N-terminally linked dimers and the head-to-tail dimer (8) are similar to ephrinA1-Fc (FIG. 14C). […] Thus, the type of linkage affects EphA2 signaling properties induced by the dimeric peptides.
The determined EC50 and Etop values allowed us to calculate the bias factor βlig for the two different responses induced by the various ligands relative to ephrinA1-Fc as the reference ligand (FIG. 14E). […] Remarkably, the bias originates from different mechanisms that depend on the class of ligands, with the N-terminally linked and head-to-tail dimers modulating relative potencies and the C-terminally-linked dimers and monomers modulating relative efficacies.

The target in data set [4] is T2, EphA2 extracellular domain fused to Fc (EphA2-Fc) (Homo sapiens, UniProt P29317).
T2 construct: immobilized EphA2 extracellular domain fused to the Fc portion of an antibody (EphA2-Fc)
T2 sequence (P29317 24-537 limits assumed): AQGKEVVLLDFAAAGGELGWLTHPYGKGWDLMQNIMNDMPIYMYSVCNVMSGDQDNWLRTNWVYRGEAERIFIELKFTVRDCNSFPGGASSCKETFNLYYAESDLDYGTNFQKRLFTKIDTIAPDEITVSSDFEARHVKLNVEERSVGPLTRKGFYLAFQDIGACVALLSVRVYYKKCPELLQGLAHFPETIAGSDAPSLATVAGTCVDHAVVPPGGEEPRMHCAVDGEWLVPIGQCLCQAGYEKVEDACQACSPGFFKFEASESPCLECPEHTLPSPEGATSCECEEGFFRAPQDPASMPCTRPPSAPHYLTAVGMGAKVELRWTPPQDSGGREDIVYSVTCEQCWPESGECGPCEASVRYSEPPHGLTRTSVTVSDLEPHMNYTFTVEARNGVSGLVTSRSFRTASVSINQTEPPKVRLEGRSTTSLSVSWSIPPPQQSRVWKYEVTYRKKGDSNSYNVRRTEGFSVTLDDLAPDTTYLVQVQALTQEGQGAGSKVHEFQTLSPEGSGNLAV
The data set is described as follows: ELISA: inhibition of ephrinA5-AP binding to immobilized EphA2-Fc. The note with it: inhibition of ephrin-A5 binding to EphA2; number of experiments in parentheses; read-out: Inc50 (nM) by ELISA. From the text:
FIG. 1A-1C illustrates an example of Potency and selectivity of EphA2-targeting dimeric peptides. (FIG. 1A) ELISAs comparing the ability of the peptides to inhibit binding of ephrin-A5 fused to alkaline phosphatase (ephrinA5-AP) to the immobilized EphA2 extracellular domain fused to the Fc portion of an antibody (EphA2-Fc). The graphs show averages ±SD from triplicate measurements from a representative experiment. IC50 values calculated from the fitted curves in each experiment are shown. Averages of IC50 values obtained from multiple experiments are shown in panel FIG. 1B and Table 3. The 10 nM peptide concentration is outlined in red. (FIG. 1B) Plot of the average IC50 values (listed in Table 3) for different ligands. […] (FIG. 1C) EphrinA5-AP binding to EphA receptors and ephrinB2-AP binding to EphB receptors in the presence of dimeric peptides representing each of the three configurations. Values are normalized to ephrin binding without peptide. The graphs show averages and SDs from triplicate measurements (with each measurement shown as a dot).
Background: ELISA stands for enzyme-linked immunosorbent assay.

A further data set addresses T3, EphA2 LBD (Homo sapiens, UniProt P29317).
T3 construct: made in house; host or cells: E. coli Origami 2(DE3)
The data set is described as follows: Isothermal titration calorimetry (ITC) with soluble EphA2 LBD. Type of data set: binding. As to the method: (FIG. 10A-10E) The EphA2 LBD was titrated at 200-250 μM into 10-12.5 μM of the indicated peptide.
For ITC, all peptides are dissolved in DMSO and both the EphA2 LBD and the peptides are diluted to obtain a final buffer containing 9.5 mM HEPES, pH 7.9, 95 mM NaCl, and 5% DMSO. The experiments are carried out at 296 K (23° C.) using an ITC200 calorimeter (Microcal). Two-microliter aliquots of a peptide solution are injected into the cell containing 205 μL EphA2 LBD. 200-400 μM peptides are titrated into 20-40 μM EphA2 LBD. Experimental data are analyzed using the Origin software package (Microcal). The integrated values for the reaction heats are normalized to the amount of injected peptide after blank subtraction.
(Isothermal titration calorimetry measures the heat released or taken up as one component is titrated into another.)

Another data set has as its system AKT. The data set is described as follows: Inhibition of AKT phosphorylation on S473 in PC3 cells. Type of data set: cell-based. The note with it: for EC50 / Etop pAKT inhlb: Table 3; for EC50: PC3 cells treated for 15 min, read-out: ECsa pAKT inhlb.; for Etop pAKT inhlb: 15 min, 1-pAKT/AKT normalized to cells not treated with ligand. How it is done: as §1
Setting [5] is: DMSO, Table 4, third of PBS/H20/DMSO, read-out: Solubility in DMSO.
The mark [6] stands for this setting: DMSO, third of PBS/H2O/DMSO, read-out: Solubility in DMSO.
Where [7] appears, read: PBS, Table 4, first of PBS/H20/DMSO, read-out: Solubility in PBS.
The mark [8] stands for this setting: PBS, first of PBS/H2O/DMSO, read-out: Solubility in PBS.
Where [9] appears, read: water, Table 4, second of PBS/H20/DMSO, read-out: Solubility in H20.
The mark [10] stands for this setting: water, second of PBS/H2O/DMSO, read-out: Solubility in H2O.

Usually solubility stands for the dissolved amount per volume that the medium holds. In general, Kd refers to the free concentration of one partner at which half of the binding sites on the other are occupied at equilibrium, for simple one-to-one binding.

T1 sequence (P29317 24-976): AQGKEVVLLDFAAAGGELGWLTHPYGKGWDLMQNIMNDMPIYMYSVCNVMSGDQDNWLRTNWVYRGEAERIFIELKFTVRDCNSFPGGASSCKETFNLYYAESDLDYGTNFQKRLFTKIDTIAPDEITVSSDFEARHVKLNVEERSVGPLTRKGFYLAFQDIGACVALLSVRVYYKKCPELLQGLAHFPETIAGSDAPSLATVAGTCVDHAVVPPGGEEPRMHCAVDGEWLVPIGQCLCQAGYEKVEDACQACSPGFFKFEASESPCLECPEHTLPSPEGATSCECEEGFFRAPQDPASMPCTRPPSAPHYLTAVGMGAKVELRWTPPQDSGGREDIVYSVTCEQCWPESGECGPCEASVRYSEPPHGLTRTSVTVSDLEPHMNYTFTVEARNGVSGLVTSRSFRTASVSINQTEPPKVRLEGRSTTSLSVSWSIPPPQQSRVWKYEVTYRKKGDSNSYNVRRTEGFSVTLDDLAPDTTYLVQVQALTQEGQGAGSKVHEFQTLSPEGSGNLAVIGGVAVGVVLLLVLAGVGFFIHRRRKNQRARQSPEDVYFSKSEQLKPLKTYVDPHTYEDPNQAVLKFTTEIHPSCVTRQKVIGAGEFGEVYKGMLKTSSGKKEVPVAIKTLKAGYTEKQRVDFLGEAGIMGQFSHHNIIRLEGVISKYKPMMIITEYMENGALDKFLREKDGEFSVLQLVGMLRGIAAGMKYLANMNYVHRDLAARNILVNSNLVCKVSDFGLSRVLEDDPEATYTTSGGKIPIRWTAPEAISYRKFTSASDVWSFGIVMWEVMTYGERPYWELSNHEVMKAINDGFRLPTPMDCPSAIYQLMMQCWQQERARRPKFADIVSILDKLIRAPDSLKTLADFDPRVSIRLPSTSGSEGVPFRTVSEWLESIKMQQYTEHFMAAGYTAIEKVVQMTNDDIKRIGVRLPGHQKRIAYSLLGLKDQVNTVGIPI
T3 sequence (P29317 28-200): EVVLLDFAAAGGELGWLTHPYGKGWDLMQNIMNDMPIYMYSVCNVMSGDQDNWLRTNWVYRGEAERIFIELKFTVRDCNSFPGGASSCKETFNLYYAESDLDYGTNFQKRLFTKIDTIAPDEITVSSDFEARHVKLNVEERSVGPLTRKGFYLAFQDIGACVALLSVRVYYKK

In the case of `CC(C)C[C@H](NC(=O)[C@H](Cc1c[nH]c2ccccc12)NC(=O)CCN)C(=O)N[C@@H](C)C(=O)N[C@@H](Cc1ccc(O)cc1)C(=O)N1CCC[C@H]1C(=O)N[C@@H](CC(=O)O)C(=O)N[C@@H](CO)C(=O)N[C@H](C(=O)N1CCC[C@H]1C(=O)N[C@@H](Cc1ccc(O)cc1)C(=O)NCC(=O)N[C@@H](CO)C(=O)NCC(=O)N[C@@H](CSSC[C@H](NC(=O)CNC(=O)[C@H](CO)NC(=O)CNC(=O)[C@H](Cc1ccc(O)cc1)NC(=O)[C@@H]1CCCN1C(=O)[C@@H](NC(=O)[C@H](CO)NC(=O)[C@H](CC(=O)O)NC(=O)[C@@H]1CCCN1C(=O)[C@H](Cc1ccc(O)cc1)NC(=O)[C@H](C)NC(=O)[C@H](CC(C)C)NC(=O)[C@H](Cc1c[nH]c2ccccc12)NC(=O)CCN)C(C)C)C(=O)O)C(=O)O)C(C)C` [compound 1, βA-WLA-YGSGC dimer (C-ter)] (I: H-[βAla]WLAYPDSVPYGSGC-OH / II: H-[βAla]WLAYPDSVPYGSGC-OH; disulfide I:15-II:15; N-terminus and C-terminus assumed), the solubility in data set [1] (setting [5]) was 5000 µg/mL (≈ 1580 µM); in data set [1] (setting [6]), 5000 µg/mL (≈ 1580 µM); in data set [1] (setting [7]), under 100 µg/mL; in data set [1] (setting [8]) it was under 100 µg/mL; in data set [1] (setting [9]), under 100 µg/mL; in data set [1] (setting [10]), under 100 µg/mL. Besides, the “Etop pY588” value on EphA2 [2] is given as 0.49 ± 0.06. Also, the “βu (bias factor βlig)” value at EphA2 [3] turned out to be 0.506 ± 0.12. For the same compound, the IC50 in data set [4] came to 71 ± 26 nM. Further, the Kd at EphA2 LBD was 2900 nM. Also, the “N (binding stoichiometry by ITC)” value at EphA2 LBD (Table 3) is on record as “N = 1.7 ± 0.2”. Also, the “-TΔS” value at EphA2 LBD (Table 6) is 16.30 ± 11 kcal/mol. Besides, at EphA2 LBD (Table 6, binding stoichiometry), the N is on record as 1.7 ± 0.2. Also, at EphA2 LBD (Table 6, change in Gibbs energy), the “ΔG” value is -7.55 ± 0.27 kcal/mol. In addition, the “ΔH” value at EphA2 LBD (Table 6, change in enthalpy) was -23.85 ± 11 kcal/mol. Also, the EC50 in the data set with AKT amounted to 39 ± 8 nM. Further, the “Etop pAKT inhlb” value in the data set with AKT (PC3 cells) is recorded as 0.90 ± 0.04.

For the compound `CC(C)C[C@H](NC(=O)[C@H](Cc1c[nH]c2ccccc12)NC(=O)[C@H](C)NC(=O)CNC(=O)[C@@H](N)CSSC[C@H](N)C(=O)NCC(=O)N[C@@H](C)C(=O)N[C@@H](Cc1c[nH]c2ccccc12)C(=O)N[C@@H](CC(C)C)C(=O)N[C@@H](C)C(=O)N[C@@H](Cc1ccc(O)cc1)C(=O)N1CCC[C@H]1C(=O)N[C@@H](CC(=O)O)C(=O)N[C@@H](CO)C(=O)N[C@H](C(=O)N1CCC[C@H]1C(=O)N[C@@H](Cc1ccc(O)cc1)C(=O)N[C@@H](CCCNC(=N)N)C(=O)N1CCC[C@H]1C(=O)N[C@@H](CCCCN)C(N)=O)C(C)C)C(=O)N[C@@H](C)C(=O)N[C@@H](Cc1ccc(O)cc1)C(=O)N1CCC[C@H]1C(=O)N[C@@H](CC(=O)O)C(=O)N[C@@H](CO)C(=O)N[C@H](C(=O)N1CCC[C@H]1C(=O)N[C@@H](Cc1ccc(O)cc1)C(=O)N[C@@H](CCCNC(=N)N)C(=O)N1CCC[C@H]1C(=O)N[C@@H](CCCCN)C(N)=O)C(C)C` [compound 6, CGA-WLA-YRPKam dimer (N-ter)], the solubility was 10000 µg/mL (≈ 2750 µM) in data set [1] (setting [5]); 10000 µg/mL (≈ 2750 µM) in data set [1] (setting [6]); under 100 µg/mL in data set [1] (setting [7]); under 100 µg/mL in data set [1] (setting [8]); 5000 µg/mL (≈ 1370 µM) in data set [1] (setting [9]); 5000 µg/mL (≈ 1370 µM) in data set [1] (setting [10]). The “Etop pY588” value at EphA2 [2] is reported as 0.98 ± 0.08. The “Emax PY588” value at EphA2 [2] (ephrinA1Fc = 1.00) was 0.80 ± 0.01. Moreover, the EC50 at EphA2 [2] (read-out: EC50 PY588) was determined as 0.12 ± 0.01 nM; in the data set on AKT, 0.08 ± 0.02 nM. Also, on EphA2 [3], the “βu (bias factor βlig)” value came to 0.51 ± 0.13. The compound further yielded a Blig at EphA2 [3] (bias factor, reference ligand ephrinA1Fc) of 0.36 ± 0.09. Besides, the figures for the IC50 (in data set [4]; in the data set with AKT (PC3 cells)) were 0.4 ± 0.1 nM and 0.043 ± 0.007 nM, respectively. The “Etop pAKT inhlb” value in the data set with AKT (PC3 cells) was 0.97 ± 0.03.
